Experimental data: US9283202B2, “Stable peracid-containing compositions” (CHD Bioscience, Inc., priority 2012, dated 2016)

Test: active ingredient concentration over time in 50% ethanol solution (pullulan precipitating agent)
Format: physicochemical
Conditions: 50% ethanol solution in buffer, 25 minutes, one data point every five minutes (FIG. 7)
Experimental: FIGS. 6-8 show examples of removing pullulan by precipitation using an alcohol or PEG. As an alternative, pullulan can be removed by precipitation using either an alcohol or polyethylene glycol (PEG). In this approach, the precipitating agent is added to the solution and causes pullulan to form a white solid. The active ingredient is not affected by this addition. The solid can be stopped from getting into the solution by either an appropriate container or a simple filter. […] In FIG. 7, a 50% ethanol solution was prepared in buffer. The active ingredient concentration was measured over time for 25 minutes (one data point every five minutes). […] Furthermore, measurements of the same concentration in straight buffer yield the same measured concentration of active ingredient.

measured concentration of active ingredient over time: no statistical difference
Structure (SMILES): CC(=O)C(=O)OO [active ingredient, peroxy pyruvic acid]
